Values of other authors, collected in patent US9320732B2, “1,2,5-oxadiazoles as inhibitors of indoleamine 2,3-dioxygenase” (Incyte Corporation, priority 2008, dated 2016).

Assays:
LLC tumors = details: C57Bl/6 mice, versus placebo
[1] = tested on: allogeneic concepti in pregnant mice; details: pregnant mice exposed to 1MT
P815 tumor = details: immune-competent pre-immunized mice

## Cn1cc(C[C@H](N)C(=O)O)c2ccccc21 [Example 1-MT, 1-methyl-tryptophan]
LLC tumors
  formation of LLC tumors: markedly delayed
[1]
  rejection of allogeneic concepti: rapid, T cell-induced rejection of all allogeneic concepti
P815 tumor
  growth of tumors in pre-immunization model: inhibited
